Reference: patent publication US11566007B2, “Ras inhibitors” (Revolution Medicines, Inc., priority 2019, dated 2023)
Where two headings read alike, the source gives them in different places.

Tests used:
KRAS WT = KRAS WT (Homo sapiens (Human), UniProt P01116+P62937); assay: Ras-Raf (BRAF RBD) disruption / FRET / MOA assay, KRAS WT; assay type: biochemical; settings: read-out: IC50* KRAS WT FRET data
Summary of the method: (§1)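 Compounds, top final concentration 30 μM in 10-point 3-fold series, incubated 3 hours at 25° C with nucleotide-loaded Ras, cyclophilin A and BRAF RBD.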

KRAS G12D = KRAS G12D (Homo sapiens (Human), UniProt P01116+P62937, G12D); assay: Ras-Raf (BRAF RBD) disruption / FRET / MOA assay, KRAS G12D; assay type: biochemical; settings: Ras-Raf disruption/FRET/MOA assay; class symbols; read-out: KRAS G12D FRET data IC50
Summary of the method: as §1

KRAS G12V = KRAS G12V (Homo sapiens (Human), UniProt P01116+P62937, G12V); assay: Ras-Raf (BRAF RBD) disruption / FRET / MOA assay, KRAS G12V; assay type: biochemical; settings: read-out: IC50* KRAS G12V FRET data
Summary of the method: as §1

NCI-H358 (K-Ras G12C) = assay: CellTiter-Glo cell viability assay, NCI-H358; assay type: cell-based, human; settings: NCI-H358, 5-day treatment, class symbols, read-out: Additional H358 Cell Viability assay data (K-Ras G12C, IC50)
Summary of the method: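 Compounds dispensed directly onto seeded K-Ras mutant cells; plates read on day 5 after ~30 min equilibration to room temperature, by CellTiter-Glo luminescence. Signal normalized as (sample/mean DMSO)×100, then fitted to a four-parameter logistic curve.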

NRAS G12C = NRAS G12C (Homo sapiens (Human), UniProt P01111+P62937, G12C); assay: Ras-Raf (BRAF RBD) disruption / FRET / MOA assay, NRAS G12C; assay type: biochemical; settings: read-out: IC50* NRAS G12C FRET data
Summary of the method: as §1

KRAS G12S = KRAS G12S (Homo sapiens (Human), UniProt P01116+P62937, G12S); assay: Ras-Raf (BRAF RBD) disruption / FRET / MOA assay, KRAS G12S; assay type: biochemical; settings: Ras-Raf disruption/FRET/MOA assay; class symbols; read-out: KRAS G12S FRET data IC50
Summary of the method: as §1

KRAS G13D = KRAS G13D (Homo sapiens (Human), UniProt P01116+P62937, G13D); assay: Ras-Raf (BRAF RBD) disruption / FRET / MOA assay, KRAS G13D; assay type: biochemical; settings: read-out: IC50* KRAS G13D FRET data
Summary of the method: as §1

[1] = test system: NCI-H358 cells (K-Ras G12C); assay: Potency assay: pERK in NCI-H358 cells; assay type: cell-based, human; settings: Homo sapiens, NCI-H358; H358 KRAS G12C; read-out: pERK EC50
Summary of the method: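 pERK decrease read by AlphaLISA SureFire p-ERK1/2 or In-Cell Western after 4 h compound exposure at 37 °C, 5% CO2.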

K-Ras G12C = K-Ras G12C (Homo sapiens (Human), UniProt P01116+P62937, G12C); assay: Ras-Raf (BRAF RBD) disruption / FRET / MOA assay, KRAS G12C; assay type: biochemical; settings: KRAS G12C; Ras-Raf disruption/FRET/MOA assay; read-out: IC50* KRAS G12C FRET data
Summary of the method: as §1

K-Ras G13C = K-Ras G13C (Homo sapiens (Human), UniProt P01116+P62937, G13C); assay: Ras-Raf (BRAF RBD) disruption / FRET / MOA assay, KRAS G13C; assay type: biochemical; settings: KRAS G13C; Ras-Raf disruption/FRET/MOA assay; read-out: IC50* KRAS G13C FRET data
Summary of the method: as §1

Chain of K-Ras G13C (P01116-2 other isoform, or with tags, fused parts or gaps G13C): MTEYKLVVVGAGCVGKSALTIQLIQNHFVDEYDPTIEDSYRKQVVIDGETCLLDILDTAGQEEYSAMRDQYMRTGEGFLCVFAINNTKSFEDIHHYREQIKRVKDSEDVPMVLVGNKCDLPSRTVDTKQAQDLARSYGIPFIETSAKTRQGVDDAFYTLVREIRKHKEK
Chain of K-Ras G13C (P62937 whole entry): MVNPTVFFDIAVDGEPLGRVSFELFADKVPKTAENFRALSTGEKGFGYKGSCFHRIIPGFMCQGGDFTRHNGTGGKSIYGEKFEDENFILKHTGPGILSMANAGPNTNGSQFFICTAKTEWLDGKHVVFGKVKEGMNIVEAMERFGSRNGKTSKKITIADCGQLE
Chain of K-Ras G12C (P01116-2 other isoform, or with tags, fused parts or gaps G12C): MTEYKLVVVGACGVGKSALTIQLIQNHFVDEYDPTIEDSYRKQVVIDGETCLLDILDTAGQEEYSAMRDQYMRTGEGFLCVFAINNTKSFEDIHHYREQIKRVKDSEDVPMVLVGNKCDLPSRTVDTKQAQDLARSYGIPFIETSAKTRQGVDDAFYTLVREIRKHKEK
Chain of K-Ras G12C (P62937 whole entry): as the sequence (P62937 whole entry) above
Chain of NRAS G12C (P01111 whole entry G12C): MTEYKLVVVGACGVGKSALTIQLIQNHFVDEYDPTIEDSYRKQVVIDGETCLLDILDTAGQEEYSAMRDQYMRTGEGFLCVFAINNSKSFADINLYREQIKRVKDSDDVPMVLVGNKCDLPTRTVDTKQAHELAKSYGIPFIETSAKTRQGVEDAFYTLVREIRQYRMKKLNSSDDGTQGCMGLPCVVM
Chain of NRAS G12C (P62937 whole entry): as the sequence (P62937 whole entry) above
Chain of KRAS G12S (P01116-2 other isoform, or with tags, fused parts or gaps G12S): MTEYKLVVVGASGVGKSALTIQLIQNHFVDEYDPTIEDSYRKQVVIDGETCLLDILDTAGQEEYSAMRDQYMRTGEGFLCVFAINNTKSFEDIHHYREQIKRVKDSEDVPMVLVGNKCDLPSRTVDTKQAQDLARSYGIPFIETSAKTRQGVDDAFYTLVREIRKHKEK
Chain of KRAS G12S (P62937 whole entry): as the sequence (P62937 whole entry) above
Chain of KRAS G12V (P01116-2 other isoform, or with tags, fused parts or gaps G12V): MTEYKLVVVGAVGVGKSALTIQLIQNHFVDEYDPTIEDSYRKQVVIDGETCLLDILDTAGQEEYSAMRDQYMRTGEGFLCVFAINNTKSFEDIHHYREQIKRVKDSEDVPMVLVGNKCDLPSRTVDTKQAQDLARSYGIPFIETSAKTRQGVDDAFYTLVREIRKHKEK
Chain of KRAS G12V (P62937 whole entry): as the sequence (P62937 whole entry) above
Chain of KRAS G13D (P01116-2 other isoform, or with tags, fused parts or gaps G13D): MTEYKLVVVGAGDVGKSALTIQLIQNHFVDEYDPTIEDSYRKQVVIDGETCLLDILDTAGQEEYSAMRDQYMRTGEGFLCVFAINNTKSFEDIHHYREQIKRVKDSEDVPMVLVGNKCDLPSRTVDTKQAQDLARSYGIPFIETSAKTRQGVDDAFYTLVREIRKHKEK
Chain of KRAS G13D (P62937 whole entry): as the sequence (P62937 whole entry) above
Chain of KRAS G12D (P01116-2 other isoform, or with tags, fused parts or gaps G12D): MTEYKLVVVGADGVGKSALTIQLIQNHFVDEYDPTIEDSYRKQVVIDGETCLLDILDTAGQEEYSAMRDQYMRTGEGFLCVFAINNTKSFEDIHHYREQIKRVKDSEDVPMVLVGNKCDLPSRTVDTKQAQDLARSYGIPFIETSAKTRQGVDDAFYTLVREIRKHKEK
Chain of KRAS G12D (P62937 whole entry): as the sequence (P62937 whole entry) above
Chain of KRAS WT (P01116-2 other isoform, or with tags, fused parts or gaps): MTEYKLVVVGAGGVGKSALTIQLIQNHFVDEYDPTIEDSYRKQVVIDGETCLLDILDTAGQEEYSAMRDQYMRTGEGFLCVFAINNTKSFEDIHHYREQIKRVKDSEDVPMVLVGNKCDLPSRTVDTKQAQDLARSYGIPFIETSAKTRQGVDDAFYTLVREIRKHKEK
Chain of KRAS WT (P62937 whole entry): as the sequence (P62937 whole entry) above

C=CC(=O)N1C[C@@H](C(=O)N(C)[C@H](C(=O)N[C@H]2Cc3cc(O)cc(c3)-c3ccc4c(c3)c(c(-c3cccnc3COC)n4CC)CC(C)(C)COC(=O)[C@@H]3CCCN(N3)C2=O)C(C)C)C[C@H]1C [Example A158]
IC50 (KRAS WT): 0.1 to 1 µM | IC50 (KRAS G12D): > 10 µM | IC50 (KRAS G12V): 1 to 10 µM | IC50 (NCI-H358 (K-Ras G12C); Homo sapiens, NCI-H358, 120 h): 0.01 to 0.1 µM | IC50 (NRAS G12C): 0.01 to 0.1 µM | IC50 (KRAS G12S): 0.1 to 1 µM | IC50 (KRAS G13D): 0.1 to 1 µM | EC50 [1]: < 5 µM | IC50 (K-Ras G12C): 0.01 to 0.1 µM | IC50 (K-Ras G13C): 0.1 to 1 µM

C=CC(=O)N1C[C@@H](C(=O)N(C)[C@@H](C(=O)N[C@H]2Cc3cc(O)cc(c3)-c3ccc4c(c3)c(c(-c3cccnc3COC)n4CC)CC(C)(C)COC(=O)[C@@H]3CCCN(N3)C2=O)C(C)C)C[C@H]1C [Example A159]
IC50 (KRAS WT): 1 to 10 µM | IC50 (KRAS G12D): > 10 µM | IC50 (KRAS G12V): 1 to 10 µM | IC50 (NCI-H358 (K-Ras G12C); Homo sapiens, NCI-H358, 120 h): 0.1 to 1 µM | IC50 (NRAS G12C): 0.1 to 1 µM | IC50 (KRAS G12S): 1 to 10 µM | IC50 (KRAS G13D): 1 to 10 µM | EC50 [1]: < 5 µM | IC50 (K-Ras G12C): 0.1 to 1 µM | IC50 (K-Ras G13C): > 10 µM

CCn1c(-c2cccnc2COC)c2c3cc(ccc31)-c1cc(O)cc(c1)C[C@H](NC(=O)[C@H](C(C)C)N(C)C(=O)[C@@H]1CCN(C(=O)C#CC(C)(C)N(C)C)C1)C(=O)N1CCC[C@H](N1)C(=O)OCC(C)(C)C2 [Example A162]
IC50 (KRAS WT): 1 to 10 µM | IC50 (KRAS G12D): 1 to 10 µM | IC50 (KRAS G12V): 0.1 to 1 µM | IC50 (NCI-H358 (K-Ras G12C); Homo sapiens, NCI-H358, 120 h): < 0.01 µM | IC50 (NRAS G12C): < 0.01 µM | IC50 (KRAS G12S): 1 to 10 µM | IC50 (KRAS G13D): 1 to 10 µM | EC50 [1]: < 5 µM | IC50 (K-Ras G12C): < 0.01 µM | IC50 (K-Ras G13C): 0.1 to 1 µM

CCn1c(-c2cccnc2COC)c2c3cc(ccc31)-c1cc(O)cc(c1)C[C@H](NC(=O)[C@H](C(C)C)N(C)C(=O)[C@H]1CCC(C(=O)/C=C\CN(C)C)C1)C(=O)N1CCC[C@H](N1)C(=O)OCC(C)(C)C2 (some centres unmarked) [Example A164]
IC50 (KRAS WT): 0.1 to 1 µM | IC50 (KRAS G12D): 1 to 10 µM | IC50 (KRAS G12V): 0.1 to 1 µM | IC50 (NCI-H358 (K-Ras G12C)): 0.1 to 1 µM | IC50 (NRAS G12C): 0.01 to 0.1 µM | IC50 (KRAS G12S): 0.1 to 1 µM | IC50 (KRAS G13D): 0.1 to 1 µM | EC50 [1]: < 5 µM | IC50 (K-Ras G12C): 0.01 to 0.1 µM | IC50 (K-Ras G13C): 0.1 to 1 µM

CCn1c(-c2cccnc2COC)c2c3cc(ccc31)-c1cc(O)cc(c1)C[C@H](NC(=O)[C@@H](C(C)C)N(C)C(=O)[C@H]1C[C@@H](C)N(C(=O)C#CCN(C)C)C1)C(=O)N1CCC[C@H](N1)C(=O)OCC(C)(C)C2 [Example A165]
IC50 (KRAS WT): > 10 µM | IC50 (KRAS G12D): > 10 µM | IC50 (KRAS G12V): > 10 µM | IC50 (NCI-H358 (K-Ras G12C); Homo sapiens, NCI-H358, 120 h): 0.01 to 0.1 µM | IC50 (NRAS G12C): 0.01 to 0.1 µM | IC50 (KRAS G12S): > 10 µM | IC50 (KRAS G13D): > 10 µM | EC50 [1]: < 5 µM | IC50 (K-Ras G12C): 0.01 to 0.1 µM | IC50 (K-Ras G13C): 0.1 to 1 µM

CC#CC(=O)N1CC[C@@H](C(=O)N(C)[C@H](C(=O)N[C@H]2Cc3cc(O)cc(c3)-c3ccc4c(c3)c(c(-c3cncnc3)n4CC)CC(C)(C)COC(=O)[C@@H]3CCCN(N3)C2=O)C(C)C)C1 [Example A169]
IC50 (KRAS WT): 1 to 10 µM | IC50 (KRAS G12D): > 10 µM | IC50 (KRAS G12V): 1 to 10 µM | IC50 (NCI-H358 (K-Ras G12C); Homo sapiens, NCI-H358, 120 h): 0.1 to 1 µM | IC50 (NRAS G12C): 0.1 to 1 µM | IC50 (KRAS G12S): 1 to 10 µM | IC50 (KRAS G13D): > 10 µM | EC50 [1]: < 5 µM | IC50 (K-Ras G12C): 0.1 to 1 µM | IC50 (K-Ras G13C): 1 to 10 µM

CCn1c(-c2cccnc2COC)c2c3cc(ccc31)-c1cc(O)cc(c1)C[C@H](NC(=O)[C@H](C(C)C)N(C)C(=O)[C@H]1C[C@@H](C)N(C(=O)C#CCN(C)C)C1)C(=O)N1CCC[C@H](N1)C(=O)OCC(C)(C)C2 [Example A175]
IC50 (KRAS WT): 1 to 10 µM | IC50 (KRAS G12D): 1 to 10 µM | IC50 (KRAS G12V): 1 to 10 µM | IC50 (NCI-H358 (K-Ras G12C); Homo sapiens, NCI-H358, 120 h): < 0.01 µM | IC50 (NRAS G12C): < 0.01 µM | IC50 (KRAS G12S): 1 to 10 µM | IC50 (KRAS G13D): 1 to 10 µM | EC50 [1]: < 5 µM | IC50 (K-Ras G12C): < 0.01 µM | IC50 (K-Ras G13C): < 0.01 µM

CCn1c(-c2cncnc2)c2c3cc(ccc31)-c1cc(O)cc(c1)C[C@H](NC(=O)[C@H](C(C)C)N(C)C(=O)[C@H]1CCN(C(=O)C#CCN3CCOCC3)C1)C(=O)N1CCC[C@H](N1)C(=O)OCC(C)(C)C2 [Example A176]
IC50 (KRAS WT): > 10 µM | IC50 (KRAS G12D): > 10 µM | IC50 (KRAS G12V): 1 to 10 µM | IC50 (NCI-H358 (K-Ras G12C); Homo sapiens, NCI-H358, 120 h): 0.01 to 0.1 µM | IC50 (NRAS G12C): < 0.01 µM | IC50 (KRAS G12S): 1 to 10 µM | IC50 (KRAS G13D): > 10 µM | EC50 [1]: < 5 µM | IC50 (K-Ras G12C): < 0.01 µM | IC50 (K-Ras G13C): 1 to 10 µM
